Measurements as given in BindingDB's records for doi:10.1021/jm00395a016 (Medical Research Division of American Cyanamid, 1988).

Biological target: Thromboxane-A synthase (Rattus norvegicus)
Experiment: Tested for inhibition of thromboxane Synthetase from spontaneously hypertensive rats

IC50: 10 nM
SMILES: CC(Cn1ccnc1)Cn1c(=O)[nH]c2cc(Cl)ccc2c1=O (stereo unspecified)
